How the values were obtained:
[1] = tested on: bulk polyclonal CD8 effector cells; test: ORFeome CD8 screen: IFN-γ ELISA after adding CD8 responders to Cos-7 aAPC co-transfected with HLA class I cDNA and HSV-1 ORF; format: cell-based, human; conditions: for CD8 IFN-γ responses to HSV-1 polypeptide (ORF level): amongst the 7 participants, HLA A, B, C screens; for HLA A*0101-bearing donors with CD8 T cells recognizing the ORF: primary co-transfection screens with shared HLA cDNA; for CD8 reactivity restricted by HLA A*0101: participant 1
[2] = tested on: CD4+ clone 9447.28 specific for HSV-1 VP22 AA 199-211; test: 3H thymidine proliferation check of expressed VP22 with a CD4 T-cell clone; format: cell-based, human; conditions: pEXP203 in vitro expressed protein
Experimental: For expression, pEXP203 plasmids were prepared from a 3 ml ampicillin culture of transformed E. coli using a silica method (Qiagen) and mass determined by spectrophotometry. Protein expression used 50 μl volumes of the Expressionway E. coli system (Invitrogen). To check expression, 1 μl of reaction product was spotted onto nitrocellulose membranes (Whatman, Piscataway, N.J.), air-dried, blocked with 1% blocking reagent (Roche) diluted in TBS (50 mM Tris, 150 mM NaCl, pH 7.5), probed with anti-6-His mAb (Roche) diluted 1:500 in TBS-0.1% Tween −20 (TBS-T) (Roche), washed with TBS-T, incubated with horseradish peroxidase-conjugated anti-mouse IgG (Promega) diluted 1:2500 in TBS-T, washed with TBS-T, and developed with TMB substrate (Promega). Proteins failing to display a spot indicating anti-6-His binding were re-synthesized. For HSV-1 protein VP22 (gene UL49), expression was checked by triplicate, 3-day ^3H thymidine proliferation assay using cornea-derived CD4+ clone 9447.28 specific for HSV-1 VP22 AA 199-211 (18) as responders (2×10^4/well), autologous 3,300 rad γ-irradiated PBMC as APC (10^5/well), and HSV-1 VP22 or controls expressed in the pEXP203 system.
We expressed proteins covering the large majority of the HSV-1 proteome using an in vitro bacterial expression system.

Molecule	CD8 IFN-γ responses to HSV-1 polypeptide (ORF level) [1]	also measured
RL2/ICP0: HSV-1 protein RL2/ICP0	elicit CD8 IFN-γ responses	CD8 IFN-γ responses to HSV-1 polypeptide (ORF level) ([1]; listed as ICP0): detected
RS1/ICP4: HSV-1 protein RS1/ICP4	elicit CD8 IFN-γ responses	CD8 IFN-γ responses to HSV-1 polypeptide (ORF level) ([1]; listed as ICP4): detected
UL1: HSV-1 protein UL1/Glycoprotein L	elicit CD8 IFN-γ responses	HLA A*0101-bearing donors with CD8 T cells recognizing the ORF [1]: each HLA A*0101-bearing donor
UL25: HSV-1 protein UL25	elicit CD8 IFN-γ responses	–
UL29: HSV-1 protein UL29/ICP8	elicit CD8 IFN-γ responses	–
UL31: HSV-1 protein UL31	elicit CD8 IFN-γ responses	–
UL37: HSV-1 protein UL37/ICP32	elicit CD8 IFN-γ responses	–
UL41: HSV-1 protein UL41/vhs	elicit CD8 IFN-γ responses	–
UL47: HSV-1 protein UL47/VP13/14	elicit CD8 IFN-γ responses	–
UL48: HSV-1 protein UL48/VP16/ICP25	elicit CD8 IFN-γ responses	CD8 reactivity restricted by HLA A*0101 [1]: strong reactivity; HLA A*0101-bearing donors with CD8 T cells recognizing the ORF [1]: each HLA A*0101-bearing donor
UL49: HSV-1 protein UL49/VP22	elicit CD8 IFN-γ responses	responses of VP22-specific CD4 T-cell clone to expressed protein [2]: strong, specific responses
UL54: HSV-1 protein UL54 ICP27	elicit CD8 IFN-γ responses	–
US7: HSV-1 protein US7/Glycoprotein I	elicit CD8 IFN-γ responses	–
UL39: HSV-1 UL39/ICP6/10, large subunit of ribonucleotide reductase (protein, human herpesvirus 1, HSV-1 UL39/ICP6/10, large subunit of ribonucleotide reductase) MASRPAASSPVEARAPVGGQEAGGPSAATQGEAAGAPLAHGHHVYCQRVNGVMVLSDKTPGSASYRISDNNFVQCGSNCTMIIDGDVVRGRPQDPGAAASPAPFVAVTNIGAGSDGGTAVVAFGGTPRRSAGTSTGTQTADVPTEALGGPPPPPRFTLGGGCCSCRDTRRRSAVFGGEGDPVGPAEFVSDDRSSDSDSDDSEDTDSETLSHASSDVSGGATYDDALDSDSSSDDSLQIDGPVCRPWSNDTAPLDVCPGTPGPGADAGGPSAVDPHAPTPEAGAGLAADPAVARDDAEGLSDPRPRLGTGTAYPVPLELTPENAEAVARFLGDAVNREPALMLEYFCRCAREETKRVPPRTFGSPPRLTEDDFGLLNYALVEMQRLCLDVPPVPPNAYMPYYLREYVTRLVNGFKPLVSRSARLYRILGVLVHLRIRTREASFEEWLRSKEVALDFGLTERLREHEAQLVILAQALDHYDCLIHSTPHTLVERGLQSALKYEEFYLKRFGGHYMESVFQMYTRIAGFLACRATRGMRHIALGREGSWWEMFKFFFHRLYDHQIVPSTPAMLNLGTRNYYTSSCYLVNPQATTNKATLRAITSNVSAILARNGGIGLCVQAFNDSGPGTASVMPALKVLDSLVAAHNKESARPTGACVYLEPWHTDVRAVLRMKGVLAGEEAQRCDNIFSALWMPDLFFKRLIRHLDGEKNVTWTLFDRDTSMSLADFHGEEFEKLYQHLEVMGFGEQIPIQELAYGIVRSAATTGSPFVMFKDAVNRHYIYDTQGAAIAGSNLCTEIVHPASKRSSGVCNLGSVNLARCVSRQTFDFGRLRDAVQACVLMVNIMIDSTLQPTPQCTRGNDNLRSMGIGMQGLHTACLKLGLDLESAEFQDLNKHIAEVMLLSAMKTSNALCVRGARPFNHFKRSMYRAGRFHWERFPDARPRYEGEWEMLRQSMMKHGLRNSQFVALMPTAASAQISDVSEGFAPLFTNLFSKVTRDGETLRPNTLLLKELERTFSGKRLLEVMDSLDAKQWSVAQALPCLEPTHPLRRFKTAFDYDQKLLIDLCADRAPYVDHSQSMTLYVTEKADGTLPASTLVRLLVHAYKRGLKTGMYYCKVRKATNSGVFGGDDNIVCMSCAL	elicit CD8 IFN-γ responses	number of distinct restricting HLA alleles ([1]; CD8 recognition): 7; number of persons with CD8 recognition of the ORF ([1]; of 7 persons): 6; number of HLA-level screens in which the ORF was recognized ([1]; of 39 screens): 11; CD8 reactivity restricted by HLA A*0101 [1]: strong reactivity
UL21: HSV-1 protein UL21 (protein, human herpesvirus 1, HSV-1 protein UL21) MELSYATTMHYRDVVFYVTTDRNRAYFVCGGCVYSVGRPCASQPGEIAKFGLVVRGTGPDDRVVANYVRSELRQRGLQDVRPIGEDEVFLDSVCLLNPNVSSELDVINTNDVEVLDECLAEYCTSLRTSPGVLISGLRVRAQDRIIELFEHPTIVNVSSHFVYTPSPYVFALAQAHLPRLPSSLEALVSGLFDGIPAPRQPLDAHNPRTDVVITGRRAPRPIAGSGAGSGGAGAKRATVSEFVQVKHIDRVGPAGVSPAPPPNNTDSSSLVPGAQDSAPPGPTLRELWWVFYAADRALEEPRADSGLTREEVRAVRGFREQAWKLFGSAGAPRAFIGAALGLSPLQKLAVYYYIIHRERRLSPFPALVRLVGRYTQRHGLYVPRPDDPVLADAINGLFRDALAAGTTAEQLLMFDLLPPKDVPVGSDVQADSTALLRFIESQRLAVPGGVISPEHVAYLGAFLSVLYAGRGRMSAATHTARLTGVTSLVLAVGDVDRLSAFDRGAAGAASRTRAAGYLDVLLTVRLARSQHGQSV	elicit CD8 IFN-γ responses	–
US1/1.5: HSV-1 protein US1/ICP22 (protein, human herpesvirus 1, HSV-1 protein US1/ICP22) MADISPGAFAPCVKARRPALRSPPLGTRKRKRPSRPLSSESEVESDTALESEVESETASDSTESGDQDEAPRIGGRRAPRRLGGRFFLDMSAESTTGTETDASVSDDPDDTSDWSYDDIPPRPKRARVNLRLTSSPDRRDGVIFPKMGRVRSTRETQPRAPTPSAPSPNAMLRRSVRQAQRRSSARWTPDLGYMRQCINQLFRVLRVARDPHGSANRLRHLIRDCYLMGYCRARLAPRTWCRLLQVSGGTWGMHLRNTIREVEARFDATAEPVCKLPCLETRRYGPECDLSNLEIHLSATSDDEISDATDLEAAGSDHTLASQSDTEDAPSPVTLETPEPRGSLAVRLEDEFGEFDWTPQEGSQPWLSAVVADTSSVERPGPSDSGAGRAAEDRKCLDGCRKMRFSTACPYPCSDTFLRP	elicit CD8 IFN-γ responses	CD8 IFN-γ responses to HSV-1 polypeptide (ORF level) ([1]; listed as ICP22): detected
UL53: HSV-1 protein UL53/Glycoprotein K (protein, human herpesvirus 1, HSV-1 protein UL53/Glycoprotein K) MLAVRSLQHLSTVVLITAYGLVLVWYTVFGASPLHRCIYAVRPTGTNNDTALVWMKMNQTLLFLGAPTHPPNGGWRNHAHICYANLIAGRVVPFQVPPDAMNRRIMNVHEAVNCLETLWYTRVRLVVVGWFLYLAFVALHQRRCMFGVVSPAHKMVAPATYLLNYAGRIVSSVFLQYPYTKITRLLCELSVQRQNLVQLFETDPVTFLYHRPAIGVIVGCELMLRFVAVGLIVGTAFISRGACAITYPLFLTITTWCFVSTIGLTELYCILRRGPAPKNADKAAAPGRSKGLSGVCGRCCSIILSGIAVRLCYIAVVAGVVLVALHYEQEIQRRLFDV	elicit CD8 IFN-γ responses	–
UL13: HSV-1 protein UL13 (protein, human herpesvirus 1, HSV-1 protein UL13) MDESRRQRPAGHVAANLSPQGARQRSFKDWLASYVHSNPHGASGRPSGPSLQDAAVSRSSHGSRHRSGLRERLRAGLSRWRMSRSSHRRASPETPGTAAKLNRPPLRRSQAALTAPPSSPSHILTLTRIRKLCSPVFAINPALHYTTLEIPGARSFGGSGGYGDVQLIREHKLAVKTIKEKEWFAVELIATLLVGECVLRAGRTHNIRGFIAPLGFSLQQRQIVFPAYDMDLGKYIGQLASLRTTNPSVSTALHQCFTELARAVVFLNTTCGISHLDIKCANILVMLRSDAVSLRRAVLADFSLVTLNSNSTIARGQFCLQEPDLKSPRMFGMPTALTTANFHTLVGHGYNQPPELLVKYLNNERAEFTNHRLKHDVGLAVDLYALGQTLLELVVSVYVAPSLGVPVTRFPGYQYFNNQLSPDFALALLAYRCVLHPALFVNSAETNTHGLAYDVPEGIRRHLRNPKIRRAFTDRCINYQHTHKAILSSVALPPELKPLLVLVSRLCHTNPCARHALS	elicit CD8 IFN-γ responses	–
UL40: HSV-1 protein UL40 (protein, human herpesvirus 1, HSV-1 protein UL40) MDSAAPALSPALTALTDQSATADLAIQIPKCPDPERYFYTSQCPDINHLRSLSILNRWLETELVFVGDEEDVSKLSEGELSFYRFLFAFLSAADDLVTENLGGLSGLFEQKDILHYYVEQECIEVVHSRVYNIIQLVLFHNNDQARREYVAGTINHPAIRAKVDWLEARVRECASVPEKFILMILIEGIFFAASFAAIAYLRTNNLLRVTCQSNDLISRDEAVHTTASCYIYNNYLGGHAKPPPDRVYGLFRQAVEIEIGFIRSQAPTDSHILSPAALAAIENYVRFSADRLLGLIHMKPLFSAPPPDASFPLSLMSTDKHTNFFECRSTSYAGAVVNDL	elicit CD8 IFN-γ responses	–

— US20130224236A1, “HSV-1 EPITOPES AND METHODS FOR USING SAME” (UNIVERSITY OF WASHINGTON, priority 2010, published 2013)
